This series in a line: Enzymatic hydrolysis stability. It is filed as in vitro ADME. The following applies: Tritirachium album (Parengyodontium album), peptide 8.0 mg/mL and proteinase K 2.0 mg/mL in PBS mixed 0.5 mL + 0.5 mL, 37 °C, HPLC peak area, mean n = 3. The method, then:
Peptides and proteinase K were dissolved in PBS and then diluted to 8.0 mg mL^−1 and 2.0 mg mL^−1, respectively. For each peptide tested, 0.5 mL of peptide solution was mixed with 0.5 mL proteinase K solution and then incubated in a water bath at 37 °C. After 0, 5, 15, 30, 60, and 120 min, a 10 µL sample of the mixture was withdrawn and 30 µL of a precipitator solution (1.0 mL of TFA in 9.0 mL acetonitrile) was added. Each sample was subsequently vortexed for 5 s and centrifuged for 10 min at 4 °C. Supernatants were analyzed by HPLC, with the peak area of each peptide recorded and used to calculate hydrolysis efficiency.

SMILES strings stand for the structures. Where a SMILES comes first, the peptide text is derived from it. [ ]: non-standard residue; d: D form. The star is where a group is joined. Stearoyl = CCCCCCCCCCCCCCCCCC(=O)*

As usually defined, the fraction remaining is what is left of the initial amount, in per cent.

Consider `CCCCCCCCCCCCCCCCCC(=O)N[C@@H](CS)C(=O)N[C@@H](CC(C)C)C(=O)N[C@@H](CC(C)C)C(=O)N[C@@H](CCCCN)C(=O)N[C@@H](CCCCN)C(=O)N[C@@H](CC(C)C)C(=O)N[C@@H](CC(C)C)C(=O)N[C@@H](CCCCN)C(=O)N[C@@H](CCCCN)C(=O)N[C@@H](CC(C)C)C(=O)N[C@@H](CC(C)C)C(=O)N[C@@H](CCCCN)C(=O)N[C@@H](CCCCN)C(=O)N[C@@H](CS)C(=O)N[C@@H](Cc1c[nH]cn1)C(=O)N[C@@H](Cc1c[nH]cn1)C(=O)N[C@@H](Cc1c[nH]cn1)C(=O)N[C@@H](Cc1c[nH]cn1)C(=O)N[C@@H](Cc1c[nH]cn1)C(=O)N[C@@H](Cc1c[nH]cn1)C(=O)N[C@@H](CCCNC(=N)N)C(=O)N[C@@H](CCCNC(=N)N)C(=O)N[C@@H](CCCNC(=N)N)C(=O)N[C@@H](CCCNC(=N)N)C(=O)N[C@@H](CCCNC(=N)N)C(=O)N[C@@H](CCCNC(=N)N)C(=O)N[C@@H](CCCNC(=N)N)C(=O)N[C@@H](CCCNC(=N)N)C(=O)N[C@@H](CCCNC(=N)N)C(N)=O` [P-03] (Stearoyl-CLLKKLLKKLLKKCHHHHHHRRRRRRRRR-NH2), for which the metabolised at 1 h, 4 mg/mL (within 60 min, read-out: peptide degraded by proteinase K) turned out to be 82%.
For `CCCCCCCCCCCCCCCCCC(=O)N[C@H](CS)C(=O)N[C@H](CC(C)C)C(=O)N[C@H](CC(C)C)C(=O)N[C@H](CCCCN)C(=O)N[C@H](CCCCN)C(=O)N[C@H](CC(C)C)C(=O)N[C@H](CC(C)C)C(=O)N[C@H](CCCCN)C(=O)N[C@H](CCCCN)C(=O)N[C@H](CC(C)C)C(=O)N[C@H](CC(C)C)C(=O)N[C@H](CCCCN)C(=O)N[C@H](CCCCN)C(=O)N[C@H](CS)C(=O)N[C@H](Cc1c[nH]cn1)C(=O)N[C@H](Cc1c[nH]cn1)C(=O)N[C@H](Cc1c[nH]cn1)C(=O)N[C@H](Cc1c[nH]cn1)C(=O)N[C@H](Cc1c[nH]cn1)C(=O)N[C@H](Cc1c[nH]cn1)C(=O)N[C@H](CCCNC(=N)N)C(=O)N[C@H](CCCNC(=N)N)C(=O)N[C@H](CCCNC(=N)N)C(=O)N[C@H](CCCNC(=N)N)C(=O)N[C@H](CCCNC(=N)N)C(=O)N[C@H](CCCNC(=N)N)C(=O)N[C@H](CCCNC(=N)N)C(=O)N[C@H](CCCNC(=N)N)C(=O)N[C@H](CCCNC(=N)N)C(N)=O` [P-04] (Stearoyl-[dC][dL][dL][dK][dK][dL][dL][dK][dK][dL][dL][dK][dK][dC][dH][dH][dH][dH][dH][dH][dR][dR][dR][dR][dR][dR][dR][dR][dR]-NH2), for the setting “60 min, read-out: peptide remaining after incubation with proteinase K”, the share remaining at 1 h, 4 mg/mL stood at 70%.

The values above are taken from PMC9084241, “The structure and configuration changes of multifunctional peptide vectors enhance gene delivery efficiency” (RSC Advances, 2018).
